The text below walks through data of patent publication US6433009B1, “Sulfonyl urea derivatives and their use in the control of interleukin-1 activity” (Pfizer Inc, priority 1997, dated 2002).

`CC(=O)c1cccc(S(=O)(=O)NC(=O)Nc2c(C(C)C)cccc2C(C)C)c1` [Example 56, 1-(3-Acetyl-benzenesulfonyl)-3-(2,6-diisopropyl-phenyl)-urea] showed a melting point of 151.6 to 153.5 °C.
To `O=C(Nc1c2c(cc3c1CCC3)CCC2)NS(=O)(=O)c1ccc2[nH]cnc2c1` [Example 127, 1-(1H-Benzoimidazole-5-sulfonyl)-3-(1,2,3,5,6,7-hexahydro-s-indacen-4-yl)-urea] belongs 239 °C (dec.).

The term melting point denotes the temperature, or range, at which the solid turns liquid.
